Measurements as given in paper PMC6681348 (Biomolecules, 2019).
Entries after “also recorded” stand apart in the source; their conditions may differ. Where two headings read alike, the source gives them in different places. Positions of bridges follow the written chain, without caps; N, C: chain ends. Residues, ends and D or L forms follow the SMILES beside them. No end group written: not given here.

Experiments:
all tested microbes = conditions: single loop synthesized alone; cited from earlier work
Text: The results just corresponded to the physicochemical properties of these two peptides.

[1] = test system: Escherichia coli (NCTC 10418); conditions: MHB, broth dilution, 1-512 µM two-fold, 5 × 10^5 cfu/mL, seven replicates
Experimental: (§1) Staphylococcus aureus (NCTC 10788), Escherichia coli (NCTC 10418), and Candida albicans (NCPF 1467) were applied in the antimicrobial test. They all were cultured in Mueller-Hinton Broth (MHB). […] Peptides were incubated with subcultured bacteria cells (5 × 10^5 cfu/mL) and each concentration was performed in seven replicates.

[2] = test system: Staphylococcus aureus (NCTC 10788); conditions: MHB, broth dilution, 1-512 µM two-fold, 5 × 10^5 cfu/mL, seven replicates
Experimental: as §1

[3] = test system: Candida albicans (NCPF 1467); conditions: MHB, broth dilution, 1-512 µM two-fold, 5 × 10^5 cfu/mL, seven replicates
Experimental: as §1

horse red blood cells = horse red blood cells 4% v/v, 37 °C, 2 h, concentrations up to 512 µM; 1% Triton X-100 = 100% haemolysis
Experimental: As described in the previous study, a suspension of horse red blood cells (4%, v/v) (TCS Biosciences, Botolph Claydon, Buckingham, UK) was incubated with peptides of the concentration range of 1 µM to 512 µM at 37 °C for 2 h to determine the peptide haemolytic activity. The positive control employed 1% TritonX-100 (Sigma, UK).

chymotrypsin = experiment: Chymotrypsin inhibition assay; assay type: biochemical; conditions: substrate Succinyl-Ala-Ala-Pro-Phe-NHMec, duplicates
Experimental: (§2) The inhibitory activity of peptides towards trypsin and chymotrypsin was tested the same as detailed in Wang’s study. Peptides were initially prepared in a range of 10^−3–10^−6 M and then diluted to 16 concentrations. Each dilution was tested in duplicates. Additionally, Phe-Pro-Arg-AMC and Succinyl-Ala-Ala-Pro-Phe-NHMec (obtained from Bachem, UK) were served as substrates for trypsin and chymotrypsin, respectively.

trypsin [4] = experiment: Trypsin inhibition assay; assay type: biochemical; conditions: substrate Phe-Pro-Arg-AMC; for trypsin inhibitory activity (in words): 16 concentrations, duplicates
Experimental: as §2

trypsin [5] = experiment: trypsin cleavage assay; conditions: up to 20 min
trypsin [6] = experiment: trypsin cleavage; conditions: cited from earlier work
trypsin [7] = conditions: read-out: Ki, trypsin inhibition; cited from earlier work
Text: Odorous frogs are distributed in East Asia and the surrounding areas, and they are named because of their smelly skin secretion, which plays a fundamental role in defensive systems. To date, hundreds of functional peptides have been isolated from Odorrana skin secretion, not only many potent antimicrobial peptides but also trypsin inhibitors. […] Combined with the data obtained from trypsin cleavage, each segment of both Kunitzin-OV and Kunitzin-RE was cleaved by trypsin via typical cleavage site Lys and Arg. […] Therefore, we assumed that the Lys close to the region of the protease-binding loop could act as a competitive position for trypsin activity ...

## -CKAAFC- (disulfide) [single disulfide loop of kunitzins synthesized alone by Chen and colleagues]
All tested microbes
  antimicrobial activity (in words): no activity was observed

## CC(C)C[C@H](NC(=O)[C@H](C)N)C(=O)N[C@@H](CCCCN)C(=O)N[C@@H](Cc1ccc(O)cc1)C(=O)N1CCC[C@H]1C(=O)N[C@@H](Cc1ccccc1)C(=O)N[C@@H](CCCNC(=N)N)C(=O)N[C@H]1CSSC[C@@H](C(=O)O)NC(=O)[C@H](Cc2ccccc2)NC(=O)[C@H](C)NC(=O)[C@H](C)NC(=O)[C@H](CCCCN)NC1=O [Kunitzin-OV] (H-ALKYPFRCKAAFC-OH; disulfide 8-13)
[1]
  Minimum Inhibitory Concentration E. coli: 512 µM
[2]
  Minimum Inhibitory Concentration S. aureus: 512 µM
[3]
  Minimum Inhibitory Concentration C. albicans: 512 µM
Horse red blood cells
  haemolytic activity: less than 10%

## CC(C)C[C@H](NC(=O)[C@H](C)N)C(=O)N[C@@H](CCCCN)C(=O)N[C@@H](Cc1ccc(O)cc1)C(=O)N1CCC[C@H]1C(=O)N[C@@H](Cc1ccccc1)C(=O)N[C@@H](CCCNC(=N)N)C(=O)N[C@H]1CSSC[C@@H](C(=O)O)NC(=O)[C@H](Cc2ccccc2)NC(=O)[C@H](C)NC(=O)[C@H](C)NC(=O)[C@H](Cc2ccccc2)NC1=O [F^9-Kunitzin-OV] (H-ALKYPFRCFAAFC-OH; disulfide 8-13 (inferred); N-terminus and C-terminus assumed)
chymotrypsin; 16 concentrations from 10^-3-10^-6 M, Morrison plot, read-out: Ki, chymotrypsin inhibitory activity
  Ki: 11800 ± 2090 nM
chymotrypsin; 16 concentrations
  chymotrypsin inhibitory activity (in words): optimized chymotrypsin inhibitory activity
Trypsin [4]
  trypsin inhibitory activity (in words): undetected; also recorded: disappeared; also recorded: vanished
Trypsin [4]; listed as site-substituted analogue
  trypsin inhibitory activity (in words): eliminated

## ALKYPFRCKAAFC
Trypsin [5]
  fragment found: ALKYPFR, first_seen, 0 min

## AAKIILNPKFRCKAAFC
Trypsin [6]
  not cleaved: this did not happen to Kunitzin-RE

## AVNIPFKVHFRCKAAFC (disulfide 12-17 (inferred)) [OGTI]
Trypsin [7]
  Ki: 400 nM

B1: ovomucoid inhibitor (chicken): chicken egg white trypsin inhibitor Type III-O, more than 200 amino acid residues, served as a contrast (protein, UniProt P01005 25-210, looked up)
Ovomucoid: AEVDCSRFPNATDKEGKDVLVCNKDLRPICGTDGVTYTNDCLLCAYSIEFGTNISKEHDGECKETVPMNCSSYANTTSEDGKVMVLCNRAFNPVCGTDGVTYDNECLLCAHKVEQGASVDKRHDGGCRKELAAVSVDCSEYPKPDCTAEDRPLCGSDNKTYGNKCNFCNAVVESNGTLTLSHFGKC
Trypsin [4]
  trypsin inhibitory activity (in words): more potent inhibitory activity than Kunitzin-OV
Trypsin [4]; listed as chicken egg white trypsin inhibitor Type III-O
  trypsin inhibitory activity (in words): faster and stronger inhibitory efficacy on trypsin than Kunitzin-OV
Trypsin [4]; Morrison plot, contrast inhibitor
  Ki: 3.49 ± 0.505 nM
